Results on 23 compounds are retold here after patent publication US12458021B2, “Microbiocidal derivatives” (SYNGENTA CROP PROTECTION AG, priority 2019, dated 2025).

In assay [1] the test system is Monographella nivalis (Microdochium nivale). Kind of assay: Monographella nivalis (Microdochium nivale) / liquid culture (foot rot cereals). The format is cell-based. Conditions: PDB potato dextrose broth, 24° C., 4-5 days after application, read-out: control of Monographella nivalis (inhibition of growth, photometric). Summed up: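 Cryostored M. nivalis conidia mixed into potato dextrose broth and added to 96-well plates holding test compound in DMSO. Incubated at 24° C; growth inhibition read photometrically 4-5 days after application.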

Assay [2] relates to Glomerella lagenarium (Colletotrichum lagenarium). Briefly: Glomerella lagenarium (Colletotrichum lagenarium) / liquid culture (anthracnose). The class given is cell-based. Conditions: Colletotrichum orbiculare, PDB potato dextrose broth, 24° C., 3-4 days after application, read-out: control of Glomerella lagenarium (inhibition of growth, photometric). In a few lines: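 Conidia from cryogenic storage suspended in potato dextrose broth and added to DMSO compound solution in plates. Incubated at 24° C; growth inhibition read photometrically 3-4 days after application.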

Assay [3] has as its system Puccinia recondita f. sp. tritici. Kind of assay: Puccinia recondita f. sp. tritici / wheat / leaf disc preventative (brown rust). The format is in vivo. Conditions: foliar, wheat leaf segments cv. Kanzler, inoculated 1 day after application, assessed 7-9 days after application, read-out: control of Puccinia recondita f. sp. tritici, preventative (percent disease control compared to untreated). The protocol:
Example B11: Puccinia recondita f. sp. tritici/Wheat/Leaf Disc Preventative (Brown Rust) Wheat leaf segments cv. Kanzler are placed on agar in multiwell plates (24-well format) and sprayed with the formulated test compound diluted in water. The leaf disks are inoculated with a spore suspension of the fungus 1 day after application. The inoculated leaf segments are incubated at 19° C. and 75% rh under a light regime of 12 h light/12 h darkness in a climate cabinet and the activity of a compound is assessed as percent disease control compared to untreated when an appropriate level of disease damage appears in untreated check leaf segments (7-9 days after application). […] […]-190.

The test system of assay [4] is Mycosphaerella graminicola (Septoria tritici). Kind of assay: Mycosphaerella graminicola (Septoria tritici) / liquid culture (Septoria blotch). The format is cell-based. The settings on record: Zymoseptoria tritici, PDB potato dextrose broth, 24° C., 4-5 days after application, read-out: control of Mycosphaerella graminicola (inhibition of growth, photometric). Summed up:
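Conidia from cryogenic storage were mixed into potato dextrose broth and added to test compound in DMSO. Plates were incubated at 24° C, and growth inhibition was read photometrically 4-5 days after application.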

The test system of assay [5] is Magnaporthe grisea (Pyricularia oryzae). Briefly: whole plant or invertebrate. Conditions: foliar, read-out: control of Magnaporthe grisea (percent disease control compared to untreated). The class given is in vivo.
Assay [6] concerns Blumeria graminis f. sp. tritici (Erysiphe graminis f. sp. tritici). Briefly: Blumeria graminis f. sp. tritici / wheat / leaf disc preventative (powdery mildew on wheat). The format is in vivo. Conditions: foliar, wheat leaf segments cv. Kanzler, inoculated 1 day after application, assessed 6-8 days after application, read-out: control of Blumeria graminis f. sp. tritici (percent disease control compared to untreated). From the text:
Example B4: Blumeria graminis f. sp. tritici (Erysiphe graminis f. sp. tritici)/Wheat/Leaf Disc Preventative (Powdery Mildew on Wheat) Wheat leaf segments cv. Kanzler are placed on agar in a multiwell plate (24-well format) and sprayed with the formulated test compound diluted in water. The leaf disks are inoculated by shaking powdery mildew infected plants above the test plates 1 day after application. […] […]-192.

Regarding `CC1(C)CCC1NC(=O)c1nc(Nc2cc(F)nc(F)c2)ccc1O` (stereo not shown) [Compound P-1, 6-[(2,6-difluoro-4-pyridyl)amino]-N-(2,2-dimethylcyclobutyl)-3-hydroxy-pyridine-2-carboxamide], the inhibition at 20 ppm in assay [1], in assay [2] and in assay [4] was no less than 80% in each case. Besides, in assay [3], the pest or weed control at 200 ppm was no less than 80%.

As to `COc1ccc(Nc2cc(F)nc(F)c2)nc1C(=O)NCCc1ccccc1` [Compound P-31, 6-[(2,6-difluoro-4-pyridyl)amino]-3-methoxy-N-(2-phenylethyl)pyridine-2-carboxamide], in assay [3], the pest or weed control at 200 ppm is no less than 80%.

For `COc1ccc(Nc2cc(F)nc(F)c2)nc1C(=O)NC1CCc2cc(C(F)(F)F)ccc21` (stereo not shown) [Compound P-47, 6-[(2,6-difluoro-4-pyridyl)amino]-3-methoxy-N-[5-(trifluoromethyl)indan-1-yl]pyridine-2-carboxamide], the inhibition at 20 ppm in assay [1], in assay [2] and in assay [4] was no less than 80% in each case. Moreover, the pest or weed control at 200 ppm in assay [5] and in assay [3] was no less than 80% throughout.

As for `COc1ccc(Nc2cnsc2)nc1C(=O)NCc1cnc(C(F)(F)F)nc1` [Compound P-80, 6-(isothiazol-4-ylamino)-3-methoxy-N-[[2-(trifluoromethyl)pyrimidin-5-yl]methyl]pyridine-2-carboxamide], the pest or weed control at 200 ppm in assay [3] was no less than 80%.

With `COc1ccc(Nc2cc(F)nc(F)c2)nc1C(=O)NC1(C2CCCCC2)CC1` [Compound P-88, N-(1-cyclohexylcyclopropyl)-6-[(2,6-difluoro-4-pyridyl)amino]-3-methoxy-pyridine-2-carboxamide], in assay [2], the inhibition at 20 ppm is no less than 80%. Further, the pest or weed control at 200 ppm in assay [5] and in assay [3] was no less than 80% in each case.

Regarding `COc1ccc(Nc2cc(F)nc(F)c2)nc1C(=O)NC1(C)CC1` [Compound P-92, 6-[(2,6-difluoro-4-pyridyl)amino]-3-methoxy-N-(1-methylcyclopropyl)pyridine-2-carboxamide], the pest or weed control at 200 ppm in assay [3] and in assay [6] was no less than 80% throughout.

Take `CCOc1ccc(Nc2cc(F)nc(F)c2)nc1C(=O)NC(C)(C)C` [Compound P-95, N-tert-butyl-6-[(2,6-difluoro-4-pyridyl)amino]-3-ethoxy-pyridine-2-carboxamide]: the inhibition at 20 ppm in assay [1] and in assay [2] was no less than 80% each time. The pest or weed control at 200 ppm in assay [5] and in assay [6] was no less than 80% throughout.

For the compound `COc1ccc(Nc2cncc(F)c2)nc1C(=O)NC1CCC1(C)C` (stereo not shown) [Compound P-104, N-(2,2-dimethylcyclobutyl)-6-[(5-fluoro-3-pyridyl)amino]-3-methoxy-pyridine-2-carboxamide], the inhibition at 20 ppm in assay [1], in assay [2] and in assay [4] was no less than 80% in each case. For the same compound, the pest or weed control at 200 ppm in assay [5] and in assay [6] was no less than 80% in each case.

For `CC(C)(C)CNC(=O)c1cccc(Nc2cc(F)nc(F)c2)n1` [Compound P-113, 6-[(2,6-difluoro-4-pyridyl)amino]-N-(2,2-dimethylpropyl)pyridine-2-carboxamide], the inhibition at 20 ppm in assay [1], in assay [2] and in assay [4] was no less than 80% throughout. Also, the pest or weed control at 200 ppm in assay [5] and in assay [6] was no less than 80% throughout.

`CC(C)(C)NC(=O)c1cccc(Nc2cc(F)nc(F)c2)n1` [Compound P-114, N-tert-butyl-6-[(2,6-difluoro-4-pyridyl)amino]pyridine-2-carboxamide]: the inhibition at 20 ppm in assay [1], in assay [2] and in assay [4] was no less than 80% each time. For the same compound, the pest or weed control at 200 ppm in assay [3] and in assay [6] was no less than 80% throughout.

For `COc1ccc(Nc2ccnc(F)c2)nc1C(=O)NCC(C)(C)C` [Compound P-136, N-(2,2-dimethylpropyl)-6-[(2-fluoro-4-pyridyl)amino]-3-methoxy-pyridine-2-carboxamide], the inhibition at 20 ppm in assay [2] is no less than 80%. Further, the pest or weed control at 200 ppm in assay [3] is no less than 80%.

On to `CCc1cccc(Nc2ccc(OC)c(C(=O)NCC(C)(C)C)n2)c1` [Compound P-137, N-(2,2-dimethylpropyl)-6-(3-ethylanilino)-3-methoxy-pyridine-2-carboxamide], for which the inhibition at 20 ppm in assay [2] is no less than 80%. The pest or weed control at 200 ppm in assay [3] is no less than 80%.

Turning to `COc1ccc(Nc2cc(C)cc(C#N)c2)nc1C(=O)NCC(C)(C)C` [Compound P-143, 6-(3-cyano-5-methyl-anilino)-N-(2,2-dimethylpropyl)-3-methoxy-pyridine-2-carboxamide], the pest or weed control at 200 ppm in assay [3] is no less than 80%.

With `COc1ccc(Nc2cc(F)c(Cl)c(F)c2)nc1C(=O)NC(C)(C)C` [Compound P-153, N-tert-butyl-6-(4-chloro-3,5-difluoro-anilino)-3-methoxy-pyridine-2-carboxamide], the inhibition at 20 ppm in assay [1], in assay [2] and in assay [4] was no less than 80% throughout. The pest or weed control at 200 ppm in assay [5] and in assay [6] was no less than 80% in each case.

As for `COc1ccc(Nc2cc(F)nc(F)c2)nc1C(=O)NC(C)C(C)C` (stereo not shown) [Compound P-167, 6-[(2,6-difluoro-4-pyridyl)amino]-N-(1,2-dimethylpropyl)-3-methoxy-pyridine-2-carboxamide], the pest or weed control at 200 ppm in assay [3] and in assay [6] was no less than 80% throughout.

For `COc1ccc(Nc2cc(F)nc(F)c2)nc1C(=O)NC(C)C(C)(C)C` (stereo not shown) [Compound P-169, 6-[(2,6-difluoro-4-pyridyl)amino]-3-methoxy-N-(1,2,2-trimethylpropyl)pyridine-2-carboxamide], the pest or weed control at 200 ppm in assay [3] and in assay [6] was no less than 80% in each case.

As for `COc1ccc(Nc2cc(F)nc(F)c2)nc1C(=O)NC(C)(C)C(C)(C)C` [Compound P-174, 6-[(2,6-difluoro-4-pyridyl)amino]-3-methoxy-N-(1,1,2,2-tetramethylpropyl)pyridine-2-carboxamide], in assay [3], the pest or weed control at 200 ppm was no less than 80%. Moreover, in assay [4], the inhibition at 20 ppm was no less than 80%.

For `COc1ccc(Nc2cc(F)nc(F)c2)nc1C(=O)NC1(C(C)C)CCC1` [Compound P-181, 6-[(2,6-difluoro-4-pyridyl)amino]-N-(1-isopropylcyclobutyl)-3-methoxy-pyridine-2-carboxamide], the inhibition at 20 ppm in assay [1] and in assay [4] was no less than 80% throughout. Further, the pest or weed control at 200 ppm in assay [3] and in assay [6] was no less than 80% each time.

For the compound `COc1ccc(Nc2cc(F)nc(F)c2)nc1C(=O)NC1(C2CCC2)CCC1` [Compound P-182, N-(1-cyclobutylcyclobutyl)-6-[(2,6-difluoro-4-pyridyl)amino]-3-methoxy-pyridine-2-carboxamide], the pest or weed control at 200 ppm in assay [3] and in assay [6] was no less than 80% throughout.

Turning to `CCC1(NC(=O)c2nc(Nc3cc(F)nc(F)c3)ccc2OC)CCC1` [Compound P-183, 6-[(2,6-difluoro-4-pyridyl)amino]-N-(1-ethylcyclobutyl)-3-methoxy-pyridine-2-carboxamide], the inhibition at 20 ppm in assay [1] and in assay [4] was no less than 80% each time. For the same compound, the pest or weed control at 200 ppm in assay [3] and in assay [6] was no less than 80% each time.

In the case of `COc1ccc(Nc2cc(F)nc(F)c2)nc1C(=O)NC1(c2cccc(Cl)n2)CCC1` [Compound P-184, N-[1-(6-chloro-2-pyridyl)cyclobutyl]-6-[(2,6-difluoro-4-pyridyl)amino]-3-methoxy-pyridine-2-carboxamide], the pest or weed control at 200 ppm in assay [3] is no less than 80%.

On to `COc1ccc(Nc2cc(F)cc(F)c2)nc1C(=O)NC1CC(c2ccc(Cl)cc2)C1` (stereo not shown) [Compound P-187, N-[3-(4-chlorophenyl)cyclobutyl]-6-(3,5-difluoroanilino)-3-methoxy-pyridine-2-carboxamide], for which the inhibition at 20 ppm in assay [1], in assay [2] and in assay [4] was no less than 80% throughout. Besides, the pest or weed control at 200 ppm in assay [3] is no less than 80%.

In the case of `COc1ccc(Nc2cc(F)nc(F)c2)nc1C(=O)NC1CC(c2ccc(Cl)cc2)C1` (stereo not shown) [Compound P-188], in assay [3], the pest or weed control at 200 ppm is no less than 80%.
